The target of one data set is T1, human GPR52 (Homo sapiens, UniProt Q9Y2T5).
T1 construct: expressed in transfected cells; host or cells: HEKf suspension cells infected with BacMam virus
Kind of data set: GPR52 Agonist Functional cAMP Assay. Format: cell-based. The procedure: GPR52 Agonist Functional cAMP Assay
HEKf suspension cells were infected for 24 h with 0.1% v/v human GPR52 expressing BacMam virus, a modified baculovirus designed for mammalian gene expression. Following BacMam infection, cells were pelleted by centrifugation (335 g, 5 min), resuspended in cell freezing medium (Sigma) and frozen at −150° C. until required. On experiment day, 25 nL GPR52 compound dilutions, prepared in DMSO, were stamped onto proxiplates (PerkinElmer) by a LabCyte ECHO acoustic dispenser. Frozen cells were thawed and resuspended in assay stimulation buffer (Cisbio) containing 0.5 mM 3-iso-butyl-1-methylxanthine (IBMX, Sigma) to achieve a density of 2000 cells per well. 10 μl cells were added to assay plates using a Multidrop Combi Reagent Dispenser (ThermoFisher) before centrifugation (335 g, 1 min). Cells were incubated with compounds at 37° C. for 30 min prior to addition of cAMP detection reagents (HiRange cAMP kit, Cisbio) which were prepared according to the manufacturer's instructions. Plates were shaken for 1 h at room temperature before reading on a PHERAstar FS plate reader (BMG Labtech) using standard HTRF settings. HTRF ratios were obtained by dividing the acceptor emissions (665 nm) by the donor emissions (620 nm) and multiplying by 10,000.

A short description of data set [1]: Rat IV and PO pharmacokinetic profiling. The note with it: male, Sprague-Dawley, plasma, n = 3, mean ± standard deviation. Format: in vivo, male Sprague-Dawley rats. The protocol:
The pharmacokinetic profiles of Example 2 were assessed in male Sprague-Dawley rats via intravenous (IV) and oral (per os, PO) routes of delivery. Pharmacokinetic data (mean values±standard deviation) for Example 2 of the invention are detailed in Table 5.
Methods: For pharmacokinetic analysis, groups of three male Sprague-Dawley rats, ranging in weight between 200 and 230 g, were administered a single dose of Example 2 via IV or PO route, using the doses, dose volumes and vehicles specified in Table 5. Following dosing, blood samples were taken at several time points (pre-dose, 2 min, 5 min, 15 min, 30 min, 1 h, 3 h, 6 h, 12 h and 24 h for IV administration and pre-dose, 5 min, 15 min, 30 min, 1 hr, 2 h, 4 h, 8 h, 12 h and 24 h for PO administration) via serial tail vein bleeds, and centrifuged to separate plasma for analysis by LC-MS/MS. WinNonlin v8.2 statistics software (Pharsight Corporation, California, USA) was used to generate pharmacokinetic parameters using non-compartmental analysis.

A short description of data set [2]: Rat IV brain penetration (unbound brain-to-plasma ratio). Format: in vivo, male Sprague-Dawley rats. The conditions noted are these: male, Sprague-Dawley, brain and plasma, 1 mg/kg, 10 min post-dose, n = 3. The procedure:
Plasma and brain exposure were evaluated to assess the brain penetration of Example 2, following IV administration. Unbound brain-to-plasma ratio (Kp,uu) was calculated, as detailed in Table 5, following experimental determination of binding in rat plasma and brain homogenate.
Methods: For brain penetration assessment, male Sprague-Dawley rats (n=3) were administered a single 1 mg/kg dose (formulated in 10% DMAC+10% Solutol HS15+80% saline) via the IV route. After 10 min post-dose, animals were sacrificed and brains extracted, homogenised with 2 volumes (w/v) of 50 mM sodium phosphate buffer (pH 7.4), and analysed by LC-MS/MS. Blood samples were removed at the same time point via tail vein bleed, centrifuged and the plasma analysed by LC-MS/MS.
To permit calculation of unbound brain-to-plasma ratio (Kp,uu), test compound binding in rat plasma and brain homogenate was performed, using Rapid Equilibrium Dialysis (RED). Test compound prepared in DMSO (1 μM final, 0.2% DMSO) was added to (i) undiluted male Sprague Dawley rat plasma and (ii) rat brain tissue homogenised with 2 volumes (w/v) of sodium phosphate buffer (pH 7.4), and dialysed against phosphate buffer for 5 h at 37° C. […] Fraction unbound (Fu) in plasma and brain was calculated using the following formula, then used to correct total plasma and brain concentrations to derive the Kp,uu: […]

As usually defined, the Emax is the greatest response seen or fitted, relative to the assay's reference. The term bioavailability denotes the share of a dose that reaches the circulation, judged against a reference dose that is usually intravenous. Low readings indicate little systemic uptake, high ones much systemic uptake.

T1 sequence (Q9Y2T5 whole entry): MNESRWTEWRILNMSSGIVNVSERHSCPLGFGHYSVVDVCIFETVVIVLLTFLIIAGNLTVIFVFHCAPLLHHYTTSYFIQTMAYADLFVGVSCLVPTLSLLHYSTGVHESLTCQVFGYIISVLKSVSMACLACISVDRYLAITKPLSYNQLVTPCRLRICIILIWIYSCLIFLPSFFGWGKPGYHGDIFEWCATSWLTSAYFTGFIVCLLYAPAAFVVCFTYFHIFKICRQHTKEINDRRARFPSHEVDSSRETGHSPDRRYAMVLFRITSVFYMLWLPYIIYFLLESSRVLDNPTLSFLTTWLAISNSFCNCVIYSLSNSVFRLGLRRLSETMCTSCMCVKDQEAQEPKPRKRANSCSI

On to `CC(=O)NC1CCCc2c1nnn2-c1cc(Cc2cc(F)cc(C(F)(F)F)c2)ccn1` (centres unmarked) [Example 2, N-(1-(4-(3-fluoro-5-(trifluoromethyl)benzyl)pyridin-2-yl)-4,5,6,7-tetrahydro-1H-benzo[d][1,2,3]triazol-4-yl)acetamide], for which the EC50 on human GPR52 (HEKf cells infected with human GPR52 BacMam virus, HTRF cAMP, 30 min at 37° C., read-out: PEC50 average (converted)) was 50.1 nM. Moreover, on human GPR52 (maximal response normalised to DMSO (0%) and compound 7m of J. Med. Chem., 2014, 57, 5226 (100%)), the maximal effect (Emax) was found to be 86%. The compound further had a clearance in data set [1] (rat IV, 1 mg/kg) of 5.5 ± 1 mL/min/kg. In data set [1] (rat PO, 3 mg/kg), the bioavailability came out at 88.2 ± 11.4%. The Kp uu at 10 min in data set [2] was determined as 0.35 ± 0.02.

The values above are taken from patent publication US20230348416A1, “GPR52 MODULATOR COMPOUNDS” (Heptares Therapeutics Limited, priority 2020, published 2023).
